According to patent US20240293413A1, “COMPOUND AND METHOD FOR TREATING CHEMOTHERAPY-RELATED GASTROINTESTINAL SIDE EFFECTS” (ONQUALITY PHARMACEUTICALS CHINA LTD., priority 2021, published 2024):

Key:
Format in all cases: in vivo
[1] = tested on: Chemotherapeutic agent-caused diarrhea models of Balb/c mice; test: Examples 1-229 (Table 3): oral CDK inhibitor, relief of diarrhea caused by a chemotherapeutic agent;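 note: percent of treated mice whose diarrhea grade fell below chemotherapy-group average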
[2] = tested on: diarrhea caused by a chemotherapeutic agent in Balb/c mice; test: Examples 343-381 (Table 6): oral versus intravenous CDK inhibitor, relief of diarrhea caused by a chemotherapeutic agent;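 for Relative remission rate: percent of treated mice whose diarrhea grade fell below chemotherapy-group average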
Outline: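 Balb/c mice (10 per group) received the CDK inhibitor orally or by tail-vein injection, or vehicle, followed by a chemotherapeutic agent or its solvent. Diarrhea grade was scored daily.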

[3] = tested on: diarrhea caused by a chemotherapeutic agent in Balb/c mice; test: Examples 230-271 (Table 4): oral CDK inhibitor, relief of diarrhea caused by a chemotherapeutic agent
Outline: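 Balb/c mice, 10 per group (vehicle, chemotherapeutic agent, CDK inhibitor plus chemotherapeutic); CDK inhibitor dosed intragastrically before the chemotherapeutic agent by injection or gavage. Diarrhea graded daily.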

CN(C)C(=O)c1cc2cnc(Nc3ccc(N4CCNCC4)cn3)nc2n1C1CCCC1 [Ribociclib]
Relative remission rate (%) ([1]; Example 45, Fluorouracil (5-Fu) intravenous injection 175 mg/kg single, CDK inhibitor oral 200 mg/kg single 0.5 h before, cycle 8 days): 40% | Relative remission rate (%) ([1]; Example 113, Irinotecan (CPT-11) oral administration 300 mg/kg single, CDK inhibitor oral 100 mg/kg single 24 h before, cycle 11 days): 60% | Relative remission rate (%) ([1]; Example 167, Docetaxel (DTX) intravenous injection 10 mg/kg single, CDK inhibitor oral 200 mg/kg single 9 h before, cycle 8 days): 80% | Relative remission rate (%) ([1]; Example 229, Etoposide 60 mg/kg and carboplatin 5 mg/kg intraperitoneal injection single, CDK inhibitor oral 200 mg/kg single, 12 h before, 10 days): 50% | Relative remission rate ([2]; Example 352, Etoposide and cisplatin intraperitoneal injection 50 (E) 5 (Cis) mg/kg single, CDK inhibitor intravenous injection 125 mg/kg single, 0.5 h before, cycle 7 days): 10% | Relative remission rate ([2]; Example 352, Etoposide and cisplatin intraperitoneal injection 50 (E) 5 (Cis) mg/kg single, CDK inhibitor oral 125 mg/kg single, 0.5 h before, cycle 7 days): 40% | Relative remission rate ([2]; Example 353, Etoposide and cisplatin intraperitoneal injection 50 (E) 5 (Cis) mg/kg single, CDK inhibitor intravenous injection 125 mg/kg single, 4 h before, cycle 7 days): 10% | Relative remission rate ([2]; Example 353, Etoposide and cisplatin intraperitoneal injection 50 (E) 5 (Cis) mg/kg single, CDK inhibitor oral 125 mg/kg single, 4 h before, cycle 7 days): 40% | Relative remission rate ([2]; Example 354, Etoposide and cisplatin intraperitoneal injection 50 (E) 5 (Cis) mg/kg single, CDK inhibitor intravenous injection 125 mg/kg single, 8 h before, cycle 7 days): 10% | Relative remission rate ([2]; Example 354, Etoposide and cisplatin intraperitoneal injection 50 (E) 5 (Cis) mg/kg single, CDK inhibitor oral 125 mg/kg single, 8 h before, cycle 7 days): 60% | Relative remission rate ([2]; Example 355, Etoposide and cisplatin intraperitoneal injection 50 (E) 5 (Cis) mg/kg single, CDK inhibitor intravenous injection 125 mg/kg single, 12 h before, cycle 7 days): 20% | Relative remission rate ([2]; Example 355, Etoposide and cisplatin intraperitoneal injection 50 (E) 5 (Cis) mg/kg single, CDK inhibitor oral 125 mg/kg single, 12 h before, cycle 7 days): 60% | Relative remission rate ([2]; Example 356, Etoposide and cisplatin intraperitoneal injection 50 (E) 5 (Cis) mg/kg single, CDK inhibitor intravenous injection 125 mg/kg single, 24 h before, cycle 7 days): 10% | Relative remission rate ([2]; Example 356, Etoposide and cisplatin intraperitoneal injection 50 (E) 5 (Cis) mg/kg single, CDK inhibitor oral 125 mg/kg single, 24 h before, cycle 7 days): 50% | Relative remission rate ([2]; Example 359, Carboplatin (CBP) intraperitoneal injection 120 mg/kg single, CDK inhibitor intravenous injection 200 mg/kg single, 0.5 h before, cycle 10 days): 20% | Relative remission rate ([2]; Example 359, Carboplatin (CBP) intraperitoneal injection 120 mg/kg single, CDK inhibitor oral 200 mg/kg single, 0.5 h before, cycle 10 days): 60% | Relative remission rate ([2]; Example 360, Carboplatin (CBP) intraperitoneal injection 120 mg/kg single, CDK inhibitor intravenous injection 200 mg/kg single, 4 h before, cycle 10 days): 20% | Relative remission rate ([2]; Example 360, Carboplatin (CBP) intraperitoneal injection 120 mg/kg single, CDK inhibitor oral 200 mg/kg single, 4 h before, cycle 10 days): 80% | Relative remission rate ([2]; Example 361, Carboplatin (CBP) intraperitoneal injection 120 mg/kg single, CDK inhibitor intravenous injection 200 mg/kg single, 8 h before, cycle 10 days): 10% | Relative remission rate ([2]; Example 361, Carboplatin (CBP) intraperitoneal injection 120 mg/kg single, CDK inhibitor oral 200 mg/kg single, 8 h before, cycle 10 days): 60% | Relative remission rate ([2]; Example 362, Carboplatin (CBP) intraperitoneal injection 120 mg/kg single, CDK inhibitor intravenous injection 200 mg/kg single, 12 h before, cycle 10 days): 10% | Relative remission rate ([2]; Example 362, Carboplatin (CBP) intraperitoneal injection 120 mg/kg single, CDK inhibitor oral 200 mg/kg single, 12 h before, cycle 10 days): 60% | Relative remission rate ([2]; Example 363, Carboplatin (CBP) intraperitoneal injection 120 mg/kg single, CDK inhibitor intravenous injection 200 mg/kg single, 24 h before, cycle 10 days): 10% | Relative remission rate ([2]; Example 363, Carboplatin (CBP) intraperitoneal injection 120 mg/kg single, CDK inhibitor oral 200 mg/kg single, 24 h before, cycle 10 days): 80% | Relative remission rate ([2]; Example 376, Gemcitabine (GEM) oral administration 300 mg/kg single, CDK inhibitor intravenous injection 100 mg/kg single, 24 h before, cycle 8 days): 20% | Relative remission rate ([2]; Example 376, Gemcitabine (GEM) oral administration 300 mg/kg single, CDK inhibitor oral 100 mg/kg single, 24 h before, cycle 8 days): 60% | relief of diarrhea by oral administration and injection administration ([2]; diarrhea caused by etoposide, etoposide in combination with cisplatin, carboplatin, gemcitabine, gemcitabine in combination with carboplatin, and topotecan, oral administration has the most significant effect): effectively relieve diarrhea | Relative remission rate ([3]; Example 243, Methotrexate (MTX) intravenous injection 300 mg/kg single, CDK inhibitor oral 125 mg/kg single, 0.5 h before, cycle 7 days): 80% | Relative remission rate ([3]; Example 244, Methotrexate (MTX) intravenous injection 300 mg/kg single, CDK inhibitor oral 125 mg/kg single, 4 h before, cycle 7 days): 60% | Relative remission rate ([3]; Example 245, Methotrexate (MTX) intravenous injection 300 mg/kg single, CDK inhibitor oral 125 mg/kg single, 8 h before, cycle 7 days): 80% | Relative remission rate ([3]; Example 246, Methotrexate (MTX) intravenous injection 300 mg/kg single, CDK inhibitor oral 125 mg/kg single, 12 h before, cycle 7 days): 40% | Relative remission rate ([3]; Example 247, Methotrexate (MTX) intravenous injection 300 mg/kg single, CDK inhibitor oral 125 mg/kg single, 24 h before, cycle 7 days): 60% | Relative remission rate ([3]; Example 248, Methotrexate (MTX) intravenous injection 300 mg/kg single, CDK inhibitor oral 125 mg/kg single, 48 h before, cycle 7 days): 0% | Relative remission rate ([3]; Example 251, Methotrexate (MTX) intraperitoneal injection 260 mg/kg single, CDK inhibitor oral 200 mg/kg single, 12 h before, cycle 7 days): 50% | Relative remission rate ([3]; Example 252, Methotrexate (MTX) intraperitoneal injection 260 mg/kg single, CDK inhibitor oral 200 mg/kg single, 48 h before, cycle 7 days): 0% | Relative remission rate ([3]; Example 269, Vinorelbine (NVB) oral administration 15 mg/kg single, CDK inhibitor oral 100 mg/kg single, 24 h before, cycle 11 days): 50%
